# Measurements: ChEMBL document CHEMBL1649270, “ST-246 inhibits in vivo poxvirus dissemination, virus shedding, and systemic disease manifestation” (2009)
# The source made the active and inactive calls. The calls are words filed in the database; no cut-off is given here.
# Legend:
# Vaccinia virus WR [1] = experiment: Antiviral activity against Vaccinia virus WR ATCC VR-1354 infected through percutaneous route in BALB/c mouse assessed as inhibition of virus dissemination in brain at 100 mg/kg, po qd for 1 day by RT-PCR analysis; format: functional, organism-based; set-up: dose 100 mg/kg
# Vaccinia virus WR [2] = experiment: Antiviral activity against Vaccinia virus WR ATCC VR-1354 infected through intraperitoneal route in BALB/c mouse assessed as protection against virus-induced systemic disease symptoms at 100 mg/kg, po qd measured after 9 days postinfection; format: functional, organism-based; set-up: dose 100 mg/kg
# Vaccinia virus WR [3] = experiment: Antiviral activity against Vaccinia virus WR ATCC VR-1354 infected through percutaneous route in BALB/c mouse assessed as protection against weight loss at 100 mg/kg, po qd for 1 to 3 days measured on day 8; format: functional, organism-based; set-up: dose 100 mg/kg
# Vaccinia virus WR [4] = experiment: Antiviral activity against Vaccinia virus WR ATCC VR-1354 infected through dermal scarification route in BALB/c mouse assessed as reduction of viral load in spleen at 100 mg/kg, po qd measured after 5 days postinfection by RT-PCR analysis relative to control; format: functional
# Vaccinia virus WR [5] = experiment: Antiviral activity against Vaccinia virus WR ATCC VR-1354 infected through percutaneous route in BALB/c mouse assessed as reduction of viral load in brain at 100 mg/kg, po qd measured after 3 days postinfection by RT-PCR analysis relative to control; format: functional
# Vaccinia virus WR [6] = experiment: Antiviral activity against Vaccinia virus WR ATCC VR-1354 infected through intraperitoneal route in BALB/c mouse assessed as reduction of viral load in brain at 100 mg/kg, po qd measured after 5 days postinfection by RT-PCR analysis relative to control; format: functional, organism-based; set-up: dose 100 mg/kg
# Vaccinia virus WR [7] = experiment: Antiviral activity against Vaccinia virus WR ATCC VR-1354 infected through dermal scarification route in BALB/c mouse assessed as protection against virus-induced satellite lesion formation on tails at 100 mg/kg, po qd measured after 6 days postinfection; format: functional, organism-based; set-up: dose 100 mg/kg
# Vaccinia virus WR [8] = experiment: Antiviral activity against Vaccinia virus WR ATCC VR-1354 infected through percutaneous route in BALB/c mouse assessed as protection against weight loss at 100 mg/kg, po qd for 5 to 14 days measured on day 8; format: functional
structure (smiles),measurement,setting,value
O=C(NN1C(=O)[C@@H]2[C@@H]3C=C[C@@H]([C@H]4C[C@@H]34)[C@@H]2C1=O)c1ccc(C(F)(F)F)cc1 [TECOVIRIMAT],Activity,Vaccinia virus WR [1],inactive
same,Activity,Vaccinia virus WR [2],Active
same,Activity,Vaccinia virus WR [3],inactive
same,fold change (FC),Vaccinia virus WR [4],16
same,fold change (FC),Vaccinia virus WR [5],1.78
same,Activity,Vaccinia virus WR [6],Active
same,Activity,Vaccinia virus WR [7],Active
same,Activity,Vaccinia virus WR [8],>70%
